Measurements taken from patent publication US11786447B2, “Conditioner composition comprising a chelant” (The Procter & Gamble Company, priority 2016, dated 2023).

Experiment: Measurement of copper on hair after shampoo/rinse-off conditioner wash cycles (ICP-OES)
Details: picolinic acid in the rinse-off conditioner; after 20 clarifying shampoo/rinse-off conditioner cycles
Method: All testing are performed on colored hair switches (see Method of Measurement of copper on hair below) weighing approximately 4.0 grams and having a length of approximately 6 inches. The hair switches are commercially available from IHIP (International Hair Importers). Three hair switches per shampoo composition are used. An amount of […] of shampoo is spread via a syringe onto separate hair switch. That is, the dosage is 0.10 g of shampoo per g of hair. Each application consists of adding shampoo to the hair, milking for 30 seconds followed by rinsing for 30 seconds. Shampoo is then reapplied (0.1 g/g), milked for 30 seconds and rinsed for 30 seconds. Excess water is squeezed from the hair switches and left to air dry or treated with a rinse-off conditioner and/or a leave-on treatment composition. This protocol is repeated for a number of times/cycles (as indicated in the tables below, which describe the details of hair treatments).
All testing are performed on colored hair switches (see Method of Measurement of copper on hair below) weighing approximately 4.0 grams and having a length of approximately 6 inches. […]
Samples of 100 mg of hair were digested overnight with 2 ml of high purity concentrated nitric acid. […] Copper content of the hair switches was determined by inductively coupled plasma atomic spectroscopy (ICP-OES)). For each leg, 3 different samples were analyzed. […]

## O=C(O)c1ccccn1 [picolinic acid]
  Removal of copper from hair compared to clarifying shampoo/control rinse-off conditioner: effective removal of copper from hair
